From the pKa sets of Baltruschat and Czodrowski (2020)

| SMILES | pKa |
| --- | --- |
| Cn1c(-c2ccc(C[NH+](C)C)cc2)cc2onc(-c3ccccc3)c2c1=O | 8.38 |
| Cc1nc[n+]([O-])c(C)c1C(=O)N1CCC(C)([NH+]2CCC(N(c3ccccc3)c3ccccc3)CC2)CC1 | 8.5 |
| O=C([O-])c1ccc(NC(=O)c2cn(-c3ccccc3)nc2-c2ccc(Cl)cc2)cc1 | 4.2 |
| CS(=O)(=O)Nn1c(=O)[nH]c2cc(C(F)(F)F)c(N3CCCOCC3)cc2c1=O | 8.4 |
| CS(=O)(=O)c1ccc(-c2nc3c(c(=O)[nH]2)COCC3)cc1 | 7.31 |
| C=CCNc1ccc2c(c1)c(-c1ccc(C(C)C)cc1)nc(=O)n2C(C)C | 2.9 |
| COc1cc(CN(CC(=O)NCc2ccccc2Cl)S(=O)(=O)c2ccc(CN3CC[NH+](C)CC3)cc2)ccc1OCC(C)C | 7.17 |
| O=C1c2ccccc2-[n+]2ccc3c([nH]c4ccccc43)c21 | 8.7 |
| Cc1ccnc(N2CCC3(CCCN(Cc4c[nH]c5ccccc45)C3=O)CC2)n1 | 4.2 |
| CS(=O)(=O)Nn1c(=O)[nH]c2cc(C(F)(F)F)c(N3CCOCC3)cc2c1=O | 8.35 |
| CC(=O)N1CCN(c2ccc(OCc3cc4cnc(C#N)nc4n3CCC3CCC(F)(F)CC3)cc2)CC1 | 3.6 |
| O=c1[nH]c(-c2ccc(C(F)(F)F)cc2)nc2c1CCOC2 | 7.87 |
| CC(C)(C)OC(=O)N1CCC(C(=O)NS(=O)(=O)c2c(Cl)sc(Cl)c2Br)CC1 | 2.1 |
| Cc1ncc(-c2ccc(C(F)(F)F)cc2)c(NC2CCCCCC2)n1 | 6 |
| O=C1CN=C(c2ccccc2)c2cc3ccccc3cc2N1 | 3.8 |
| Cc1ccc(C)n1-c1ccc(Cl)cc1C(=O)[O-] | 3.35 |
| CC(C)Cn1cnc2c(N)nc3ccccc3c21 | 7.24 |
| CC(=C(C#N)C#N)c1ccc2cc(N(C)CCF)ccc2c1 | 2.4 |
| Cc1ncc(-c2ccc(C(F)(F)F)cc2)c(NC2C3CC4CC(C3)CC2C4)n1 (centres undefined) | 6 |
| Cc1cccc(C)c1C(=O)N1CCC(C)([NH+]2CCC(N(c3ccccc3)c3ccccc3)CC2)CC1 | 8.35 |
| Fc1ccc([C@H]2CC[NH2+]C[C@@H]2COc2ccc3c(c2)OCO3)cc1 | 9.5 |
| COc1ccc(SCCc2ccncc2)cc1 | 5.6 |

| SMILES | pKa |
| --- | --- |
| CN1c2ccc(C#N)cc2N=C(c2ccc(C(=O)[O-])c(F)c2)c2cc3c(cc21)C(C)(C)CCC3(C)C | 3.4 |
| CCC1CCCCN1C(=O)c1cnc(Nc2ccc(C)nc2)c(Cl)c1 (centres undefined) | 5.3 |
| CS(=O)(=O)Nn1c(=O)[nH]c2cc(C(F)(F)F)ccc2c1=O | 8.35 |
| COc1ccc(OC)c(S(=O)(=O)N2CCC(CN3CC[NH+](Cc4ccc(F)cc4)CC3)CC2)c1 | 7.32 |
| Cc1nc(N2CCN(CC3CC3)C2=O)sc1C(=O)NCc1cccnc1 | 5 |
| COc1cc(C(C)=O)ccc1OCCC[NH+]1CCC(c2noc3cc(F)ccc23)CC1 | 8.2 |
| [NH3+]C(CO)c1ccccc1 (centres undefined) | 8.4 |
| Cc1ccc(-c2cc(C(F)(F)F)nn2-c2ccc(S(N)(=O)=O)cc2)cc1 | 9.46 |
| CCOCC(=O)N1CCC(CNc2nc3c(s2)CCOc2ccc(F)cc2-3)CC1 | 3.7 |
| Cc1cc(C)nc(N2CCC3(CCCN(Cc4c[nH]c5ccccc45)C3=O)CC2)n1 | 4.94 |
| CCCCCCCCc1ccc(CCC([NH3+])(CO)CO)cc1 | 8.52 |
| CC(C)(C)[NH2+]C[C@H](O)c1cc(Cl)c(N)c(Cl)c1 | 9.7 |
| CCCCC(=O)N1CCC(CNc2nc3c(s2)CCOc2ccc(F)cc2-3)CC1 | 3.69 |
| CNC(=O)c1c(NCC2CCC3(CCC3)CC2)nc(C#N)nc1OCCC1CC[NH+](C)CC1 | 10.2 |
| Cn1c(N)nc2ccccc2c1=O | 5.2 |
| Brc1ccc(C2CN3C=CSC3=[NH+]2)cc1 (centres undefined) | 8.55 |
| CC(=O)N1CCC(CNc2nc3c(s2)CCCc2ccc(F)cc2-3)CC1 | 4.31 |
| Cc1c(-c2ccccc2)c(=O)oc2cc(O)ccc12 | 7.74 |
| CCc1ccc(-c2cnc(C)nc2NC2CCCC2)cc1 | 6.8 |
| CC(C)n1c(/C=C/[C@H](O)C[C@H](O)CC(=O)[O-])c(-c2ccc(F)cc2)c2ccccc21 | 4.5 |
| Cn1c(=O)n(NS(C)(=O)=O)c(=O)c2ccc(Cl)cc21 | 6.8 |

Results, then the compound that gave them:

| pKa | SMILES |
| --- | --- |
| 8.2 | CC#CCn1c(N2CC[NH2+]CC2)c(C#N)c2ncn(CC(=O)c3cccc(OC)c3)c(=O)c21 |
| 6.37 | COc1ccc(N2CCc3c(-n4ccc(N5CCNC5=O)n4)cc(C)nc32)c(C)c1 |
| 8.66 | CC(C)[NH+](CCc1c[nH]c2ccccc12)Cc1ccc(CCC(=O)N=O)cc1 |
| 8.3 | Cc1ccc(-c2ccc3c(c2)C=C(C(=O)Nc2ccc(C[NH+](C)C4CCOCC4)cc2)CCC3)cc1 |
| 8.1 | COc1ccc(C#CC(C)(C)[NH3+])cc1C(=O)c1ccc(Nc2ccc(F)cc2F)cc1 |
| 10 | Cc1onc(-c2ccccc2)c1-c1ccc(S(N)(=O)=O)cc1 |
| 3.8 | Cc1ccc2c(=O)c3cccc(CC(=O)[O-])c3oc2c1C |
| 5.28 | COc1ccnc(N2CCC3(CCCN(Cc4c[nH]c5ccccc45)C3=O)CC2)n1 |
| 4.2 | Cc1ccc(Nc2c(F)cccc2Cl)c(CC(=O)[O-])c1 |
| 9.2 | CC[C@H](C(=O)NO)[C@H](C(=O)N1CCCC[C@H]1C(=O)NC)c1ccc(Cl)cc1 |
| 9.1 | COc1ccc(-c2ccc(C(=O)Nc3ccc4c(c3)CCC(C[NH+](C)C)C4)cc2)cc1 (centres undefined) |
| 4.18 | Cc1ncccc1Oc1ncnc(OC2CCN(C(=O)OC(C)C)CC2)c1C |
| 8.59 | Cc1[nH]c2ccccc2c1C1CC[NH+](Cc2ccc(CCC(=O)N=O)cc2)C1 (centres undefined) |
| 5 | C/C(=C\c1ccccn1)[C@@H]1C[C@@H]2O[C@]2(C)CCC[C@H](C)[C@H](O)[C@@H](C)C(=O)C(C)(C)[C@@H](O)CC(=O)O1 |
| 3.51 | O=C([O-])COc1ccc(Cl)cc1C1CCCCC1 |
| 5.5 | C/C(=C\c1cc(C)ccn1)[C@@H]1C[C@@H]2O[C@]2(C)CCC[C@H](C)[C@H](O)[C@@H](C)C(=O)C(C)(C)[C@@H](O)CC(=O)O1 |

| pKa | SMILES |
| --- | --- |
| 4.27 | CNC(=O)c1ccccc1Nc1nc(Nc2ccc(N3CCOCC3)cc2OC)ncc1Cl |
| 10.7 | CNC(=O)c1c(NCC2CCC3(CCC3)CC2)nc(C#N)nc1OCC1CC[NH+](C)CC1 |
| 4.28 | Cc1nc(N2CCN(Cc3ccccc3)C2=O)sc1C(=O)NCc1ccccn1 |
| 5.8 | CCN(Cc1ccccc1)c1ccccc1 |
| 6.87 | CC(C)(C)c1ccc(S(=O)(=O)Nc2ccc(Cl)cc2C(=O)c2cc[n+]([O-])cc2)cc1 |
| 8.85 | O=NC(=O)CCc1ccc(C[NH2+]CC23CC4CC(CC(C4)C2)C3)cc1 |
| 9.2 | CNC(=O)c1c(NCC2CCC3(CCC3)CC2)nc(C#N)nc1OC1CC(C)(C)[NH2+]C(C)(C)C1 |
| 9.2 | CC(C)(C)Cn1c(CN2C(=O)CC3(CC[NH2+]CC3)C2=O)cc2cnc(C#N)nc21 |
| 4.25 | CNc1nc2ccccc2n(C)c1=O |
| 7.8 | C[NH+](CCC(=O)N1CCN(c2ccc(F)c(F)c2)CC1)CCC1c2ccccc2-c2ccccc21 |
| 8.4 | CN(n1c(=O)[nH]c2cc(Cl)ccc2c1=O)S(C)(=O)=O |
| 8.2 | CC(C)COC(=O)Nc1ccc(-c2cnc3c(-c4ccc(N5CC[NH+](C)CC5)cc4)cnn3c2N)cc1 |
| 9 | Cc1nc2cccc(C(F)(F)F)c2c(=O)n1-c1ccc(OC2CC[NH+](C3CCC3)CC2)cc1 |
| 10.9 | COc1ccc(CNC(=O)[C@@H](NC(=O)[C@H](Cc2ccc(OC)c(OC)c2)NC(=O)Cc2cccc(Oc3ccccc3)c2)C(C)C)c(O)c1 |
| 7.7 | C[C@@H](NC(=O)c1cc(C(=O)N[C@@H](Cc2ccccc2)[C@H](O)C[NH2+]C2CC2)cc(N(C)S(C)(=O)=O)c1)c1ccc(F)cc1 |
